We go through 41 molecules from patent US10941379B2, “Microbial system for biosynthesis of natural and engineered products coupled to in situ extraction in supercritical CO2” (Massachusetts Institute of Technology, priority 2016, dated 2021).

The test system of the assay is B. megaterium SR7. The assay is described as follows: Biolog GenIII sole carbon source growth. The settings on record: Table 11; for Growth in carbon source Biolog plate, +Metals: trace metals-amended plate; for Growth in carbon source Biolog plate, I: unamended plate trial I; for Growth in carbon source Biolog plate, II: unamended plate trial II. Format: cell-based, Bacillus megaterium. The protocol: Plates were incubated at 37° C. on a plate shaker at 200 rpm and assayed for growth using NADH-dependent colorimetric changes measured by OD490 on a microplate reader (BioTek Synergy 2; BioTek; Winooski, Vt.).

Turning to `O=P(O)(O)OC[C@H]1OC(O)(CO)[C@@H](O)[C@@H]1O` (stereo partly drawn) [D-Fructose-6-PO4], the “Growth in carbon source Biolog plate, +Metals” value is recorded as “−”; the “Growth in carbon source Biolog plate, I” value was “+”; the “Growth in carbon source Biolog plate, II” value is recorded as “−”.

As to `OC[C@H]1O[C@@H](O[C@H]2[C@H](O)[C@@H](O)[C@@H](O)O[C@@H]2CO)[C@H](O)[C@@H](O)[C@H]1O` [α-D-Lactose], the “Growth in carbon source Biolog plate, +Metals” value is on record as “+”; the “Growth in carbon source Biolog plate, I” value is listed as “+”; the “Growth in carbon source Biolog plate, II” value is on record as “+”.

In the case of `O[C@H]1[C@H](O)[C@@H](O)[C@H](O)[C@@H](O)[C@H]1O` [myo-Inositol], the “Growth in carbon source Biolog plate, +Metals” value is on record as “+++”; the “Growth in carbon source Biolog plate, I” value was “−”; the “Growth in carbon source Biolog plate, II” value is listed as “+”.

Take `OC[C@@H](O)C(O)[C@H](O)CO` [D-Arabitol]: the “Growth in carbon source Biolog plate, +Metals” value is reported as “+”; the “Growth in carbon source Biolog plate, I” value is “+”; the “Growth in carbon source Biolog plate, II” value is on record as “+”.

For the molecule `O=CO` [Formic Acid], the “Growth in carbon source Biolog plate, +Metals” value was “−”; the “Growth in carbon source Biolog plate, I” value is given as “+”; the “Growth in carbon source Biolog plate, II” value is given as “−”.

In the case of `N[C@@H](CO)C(=O)O` [L-Serine], the “Growth in carbon source Biolog plate, +Metals” value is on record as “−”; the “Growth in carbon source Biolog plate, I” value is reported as “+”; the “Growth in carbon source Biolog plate, II” value was “+”.

Take `C[C@@H](O)[C@H](O)[C@H](O)[C@@H](O)C=O` [D-Fucose]: the “Growth in carbon source Biolog plate, +Metals” value was “−”; the “Growth in carbon source Biolog plate, I” value is reported as “−”; the “Growth in carbon source Biolog plate, II” value is on record as “−”.

With `O=C1CC[C@@H](C(=O)O)N1` [L-Pyroglutamic Acid], the “Growth in carbon source Biolog plate, +Metals” value is reported as “+++”; the “Growth in carbon source Biolog plate, I” value is listed as “+”; the “Growth in carbon source Biolog plate, II” value is “+”.

On to `OC[C@H]1O[C@@H](O[C@H]2[C@H](O)[C@@H](O)[C@H](O)O[C@@H]2CO)[C@H](O)[C@@H](O)[C@@H]1O` [D-Cellobiose], for which the “Growth in carbon source Biolog plate, +Metals” value is reported as “+”; the “Growth in carbon source Biolog plate, I” value is “+”; the “Growth in carbon source Biolog plate, II” value is on record as “+”.

`OC[C@H]1O[C@@H](n2cnc3c(O)ncnc32)[C@H](O)[C@@H]1O` [Inosine]: the “Growth in carbon source Biolog plate, +Metals” value is recorded as “+”; the “Growth in carbon source Biolog plate, I” value was “−”; the “Growth in carbon source Biolog plate, II” value was “+”.

Turning to `O=C[C@H](O)[C@@H](O)[C@H](O)[C@H](O)C(=O)O` [D-Glucuronic Acid], the “Growth in carbon source Biolog plate, +Metals” value is recorded as “−”; the “Growth in carbon source Biolog plate, I” value is “+”; the “Growth in carbon source Biolog plate, II” value is on record as “+”.

D-Salicin: the “Growth in carbon source Biolog plate, +Metals” value is listed as “+”; the “Growth in carbon source Biolog plate, I” value is on record as “+”; the “Growth in carbon source Biolog plate, II” value was “+”.

Turning to `CCC(=O)O` [Propionic Acid], the “Growth in carbon source Biolog plate, +Metals” value was “−”; the “Growth in carbon source Biolog plate, I” value is recorded as “−”; the “Growth in carbon source Biolog plate, II” value is given as “+”.

As to `O=C(CO)[C@@H](O)[C@H](O)[C@H](O)CO` [D-Fructose], the “Growth in carbon source Biolog plate, +Metals” value is “+”; the “Growth in carbon source Biolog plate, I” value is on record as “+”; the “Growth in carbon source Biolog plate, II” value is listed as “+”.

In the case of `OC[C@@H](O)[C@@H](O)[C@H](O)[C@@H](O)CO` [D-Sorbitol], the “Growth in carbon source Biolog plate, +Metals” value is on record as “+”; the “Growth in carbon source Biolog plate, I” value is listed as “+”; the “Growth in carbon source Biolog plate, II” value is given as “−”.

Regarding `N=C(N)NCCC[C@H](N)C(=O)O` [L-Arginine], the “Growth in carbon source Biolog plate, +Metals” value is recorded as “+++”; the “Growth in carbon source Biolog plate, I” value is reported as “+”; the “Growth in carbon source Biolog plate, II” value was “+”.

For the molecule `NCCCC(=O)O` [Υ-Amino-Butryric Acid], the “Growth in carbon source Biolog plate, +Metals” value is listed as “+++”; the “Growth in carbon source Biolog plate, I” value was “−”; the “Growth in carbon source Biolog plate, II” value is “+”.

Take `O=C[C@@H](O)[C@@H](O)[C@H](O)[C@H](O)CO` [D-Mannose]: the “Growth in carbon source Biolog plate, +Metals” value is “−”; the “Growth in carbon source Biolog plate, I” value is on record as “−”; the “Growth in carbon source Biolog plate, II” value was “−”.

`COC(=O)C(C)=O` [Methyl Pyruvate]: the “Growth in carbon source Biolog plate, +Metals” value was “+”; the “Growth in carbon source Biolog plate, I” value is “+”; the “Growth in carbon source Biolog plate, II” value was “+”.

Turning to `O=C[C@H](O)[C@@H](O)[C@@H](O)[C@H](O)CO` [D-Galactose], the “Growth in carbon source Biolog plate, +Metals” value was “+”; the “Growth in carbon source Biolog plate, I” value is listed as “+”; the “Growth in carbon source Biolog plate, II” value is given as “+”.

For `CCC(O)C(=O)O` (stereo not drawn) [α-Hydroxy-Butyric Acid], the “Growth in carbon source Biolog plate, +Metals” value is listed as “−”; the “Growth in carbon source Biolog plate, I” value is listed as “−”; the “Growth in carbon source Biolog plate, II” value was “−”.

For `O=C(O)CC(O)(CC(=O)O)C(=O)O` [Citric Acid], the “Growth in carbon source Biolog plate, +Metals” value is given as “+++” and the “Growth in carbon source Biolog plate, I” value is reported as “+++”.

Consider `O=C(O)[C@@H](O)[C@H](O)[C@H](O)[C@@H](O)C(=O)O` [Mucic Acid], for which the “Growth in carbon source Biolog plate, +Metals” value is reported as “−”; the “Growth in carbon source Biolog plate, I” value is recorded as “−”; the “Growth in carbon source Biolog plate, II” value is recorded as “+”.

Regarding `O=C1O[C@H]([C@@H](O)CO)[C@@H](O)[C@@H]1O` [L-Galactonic Acid Lactone], the “Growth in carbon source Biolog plate, +Metals” value is recorded as “−”; the “Growth in carbon source Biolog plate, I” value is reported as “−”; the “Growth in carbon source Biolog plate, II” value is listed as “+”.

On to `COC(=O)[C@@H](C)O` [D-Lactic Acid Methyl Ester], for which the “Growth in carbon source Biolog plate, +Metals” value is “+”; the “Growth in carbon source Biolog plate, I” value is “+”; the “Growth in carbon source Biolog plate, II” value is “+”.

As for `O=P(O)(O)OC[C@H]1OC(O)[C@H](O)[C@@H](O)[C@@H]1O` (stereo partly drawn) [D-Glucose-6-PO4], the “Growth in carbon source Biolog plate, +Metals” value was “−”; the “Growth in carbon source Biolog plate, I” value was “−”; the “Growth in carbon source Biolog plate, II” value was “−”.

On to `O=C(O)[C@]1(O)C[C@@H](O)[C@@H](O)[C@H](O)C1` [Quinic Acid], for which the “Growth in carbon source Biolog plate, +Metals” value is “−”; the “Growth in carbon source Biolog plate, I” value is “−”; the “Growth in carbon source Biolog plate, II” value is reported as “+”.

Turning to `NC(=O)[C@@H](O)[C@@H](O)[C@H](O)[C@@H](O)C=O` [Glucuronamide], the “Growth in carbon source Biolog plate, +Metals” value was “−”; the “Growth in carbon source Biolog plate, I” value is reported as “−”; the “Growth in carbon source Biolog plate, II” value is recorded as “−”.

As for `O=C(O)C[C@@H](O)C(=O)O` [D-Malic Acid], the “Growth in carbon source Biolog plate, +Metals” value is “−”; the “Growth in carbon source Biolog plate, I” value is reported as “−”; the “Growth in carbon source Biolog plate, II” value is “−”.

For `CC(=O)N[C@H]1[C@H]([C@H](O)[C@H](O)CO)OC(O)(C(=O)O)C[C@@H]1O` (some centres unmarked) [N-Acetyl Neuraminic Acid], the “Growth in carbon source Biolog plate, +Metals” value was “−”; the “Growth in carbon source Biolog plate, I” value was “−”; the “Growth in carbon source Biolog plate, II” value is reported as “−”.

As to `C[C@H](O)[C@H](O)[C@@H](O)[C@@H](O)C=O` [L-Rhamnose], the “Growth in carbon source Biolog plate, +Metals” value is recorded as “−”; the “Growth in carbon source Biolog plate, I” value was “−”; the “Growth in carbon source Biolog plate, II” value is “−”.

On to `CC(=O)N[C@H]1[C@@H](O)[C@H](O)[C@@H](CO)O[C@H]1O` [N-Acetyl-β-D-Mannosamine], for which the “Growth in carbon source Biolog plate, +Metals” value is reported as “−”; the “Growth in carbon source Biolog plate, I” value is on record as “−”; the “Growth in carbon source Biolog plate, II” value was “−”.

For the molecule `OC[C@H]1O[C@H](OCC2O[C@@H](O)[C@H](O)[C@@H](O)[C@@H]2O)[C@H](O)[C@@H](O)[C@H]1O` (stereo partly drawn) [D-Melibiose], the “Growth in carbon source Biolog plate, +Metals” value is given as “+”; the “Growth in carbon source Biolog plate, I” value is given as “+”; the “Growth in carbon source Biolog plate, II” value is on record as “+”.

Take Gentiobiose: the “Growth in carbon source Biolog plate, +Metals” value is on record as “+”; the “Growth in carbon source Biolog plate, I” value is reported as “+”; the “Growth in carbon source Biolog plate, II” value was “+”.

For `C[C@H](O)[C@@H](O)[C@@H](O)[C@H](O)C=O` [L-Fucose], the “Growth in carbon source Biolog plate, +Metals” value is on record as “−”; the “Growth in carbon source Biolog plate, I” value is recorded as “−”; the “Growth in carbon source Biolog plate, II” value is recorded as “−”.

With `OC[C@H]1O[C@H](OC[C@H]2O[C@H](O[C@]3(CO)O[C@H](CO)[C@@H](O)[C@@H]3O)[C@H](O)[C@@H](O)[C@@H]2O)[C@H](O)[C@@H](O)[C@H]1O` [D-Raffinose], the “Growth in carbon source Biolog plate, +Metals” value is “+++”; the “Growth in carbon source Biolog plate, I” value is “−”; the “Growth in carbon source Biolog plate, II” value was “+”.

With `CCC(=O)C(=O)O` [α-Keto-Butyric Acid], the “Growth in carbon source Biolog plate, +Metals” value is “−”; the “Growth in carbon source Biolog plate, I” value is “−”; the “Growth in carbon source Biolog plate, II” value is given as “−”.

Consider `N[C@H](CC(=O)O)C(=O)O` [D-Aspartic Acid], for which the “Growth in carbon source Biolog plate, +Metals” value is listed as “−”; the “Growth in carbon source Biolog plate, I” value is reported as “−”; the “Growth in carbon source Biolog plate, II” value is given as “−”.

For the molecule `OC[C@H]1O[C@H](OC[C@H]2O[C@H](OC[C@H]3O[C@H](O[C@]4(CO)O[C@H](CO)[C@@H](O)[C@@H]4O)[C@H](O)[C@@H](O)[C@@H]3O)[C@H](O)[C@@H](O)[C@H]2O)[C@H](O)[C@@H](O)[C@H]1O` [Stachyose], the “Growth in carbon source Biolog plate, +Metals” value is “+”; the “Growth in carbon source Biolog plate, I” value was “+”; the “Growth in carbon source Biolog plate, II” value is on record as “+”.

Take `CC(=O)N[C@H]1C(O)O[C@H](CO)[C@H](O)[C@@H]1O` (stereo partly drawn) [N-Acetyl-D-Galactosamine]: the “Growth in carbon source Biolog plate, +Metals” value was “−”; the “Growth in carbon source Biolog plate, I” value was “+”; the “Growth in carbon source Biolog plate, II” value is reported as “−”.

Take `CO[C@@H]1O[C@H](CO)[C@@H](O)[C@H](O)[C@H]1O` [β-Methyl-D-Glucoside]: the “Growth in carbon source Biolog plate, +Metals” value was “+”; the “Growth in carbon source Biolog plate, I” value was “−”; the “Growth in carbon source Biolog plate, II” value is “+”.
